Data: PubChem BioAssay (NCI)
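Compound exposure: 48 hours, 5 concentrations, 96-well plates. GI50: concentration for 50% inhibition of growth. TGI: concentration producing complete growth inhibition.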

Assays:
Assay in all cases: NCI-60 cell line screen, 48 h
SF-295 CNS = tested on: SF-295 CNS
HCT-116 colon = tested on: HCT-116 colon
SNB-75 CNS = tested on: SNB-75 CNS
A498 renal = tested on: A498 renal
BT-549 breast = tested on: BT-549 breast
ACHN renal = tested on: ACHN renal
OVCAR-3 ovarian = tested on: OVCAR-3 ovarian
OVCAR-8 ovarian = tested on: OVCAR-8 ovarian
MOLT-4 leukemia = tested on: MOLT-4 leukemia
UO-31 renal = tested on: UO-31 renal

Compound	GI50 (SF-295 CNS)	TGI (SF-295 CNS)	GI50 (HCT-116 colon)	TGI (HCT-116 colon)	GI50 (SNB-75 CNS)	TGI (SNB-75 CNS)	GI50 (A498 renal)	TGI (A498 renal)	GI50 (BT-549 breast)	TGI (BT-549 breast)	GI50 (ACHN renal)	TGI (ACHN renal)	GI50 (OVCAR-3 ovarian)	TGI (OVCAR-3 ovarian)	GI50 (OVCAR-8 ovarian)	TGI (OVCAR-8 ovarian)	GI50 (MOLT-4 leukemia)	TGI (MOLT-4 leukemia)	GI50 (UO-31 renal) [µM]	TGI (UO-31 renal) [µM]
CC1C(=O)c2cc3c(cc2CCN(C)Cc2c1ccc1c2OCO1)OCO3 (stereo unspecified)	> 75 µg/mL	> 75 µg/mL	23.4 µg/mL	> 75 µg/mL	> 75 µg/mL	> 75 µg/mL	> 75 µg/mL	> 75 µg/mL	59 µg/mL	> 75 µg/mL	> 75 µg/mL	> 75 µg/mL	> 75 µg/mL	> 75 µg/mL	> 75 µg/mL	> 75 µg/mL	21.8 µg/mL	> 75 µg/mL		
Clc1ccc(Nc2nc(Nc3ccccc3)nc(Nc3ccc(-c4cc(-c5ccc(Cl)cc5)on4)cc3)n2)cc1	12.6 µM	77.6 µM	7.68 µM	26.5 µM	21.6 µM	> 100 µM	3.38 µM	55.1 µM	32.9 µM	> 100 µM	21.9 µM	> 100 µM	27.4 µM	> 100 µM	21.4 µM	> 100 µM	21 µM	> 100 µM		
O=C(Cc1csc2nc(-c3ccc(Cl)cc3)cn12)N/N=C/c1ccccc1O	5.21 µM	> 100 µM			4.32 µM	> 100 µM	8.32 µM	> 100 µM			1.77 µM	> 100 µM	0.36 µM	83.8 µM	3.01 µM	78.9 µM	2.17 µM	> 100 µM	0.504	43.9
O=C1C2Cc3c(n(C(=O)c4ccccc4)c4ccccc34)CC2C(=O)N1c1ccc(Nc2ccc(N3C(=O)C4Cc5c(n(C(=O)c6ccccc6)c6ccccc56)CC4C3=O)cc2)cc1 (stereo unspecified)		> 100 µM		> 100 µM		> 100 µM		> 100 µM		> 100 µM		> 100 µM		> 100 µM		> 100 µM		> 100 µM		> 100
CC1=C[C@@H](C)C[C@]2(C)CC[C@H](O2)[C@]23CC[C@](CO)(C[C@H](O2)[C@@H]2O[C@@](C)(CC2=O)[C@@H](O)[C@H]2CC[C@@]4(CCC[C@@H](O4)[C@H](C)C(=O)O[C@H]4C[C@H]([C@]5(O)OCC[C@H](C)[C@@H]5O)O[C@H]4C=C1)O2)O3		> 10 µM		> 10 µM		0.00179 µM		0.0156 µM		0.258 µM		> 10 µM		0.102 µM		> 4.19 µM		> 10 µM		0.207
COC(=O)c1cc(NC(=O)c2cc(NC(=O)Cc3c[nH]c4ccccc34)cn2C)cn1C		> 100 µM		84.1 µM		92.9 µM		78.5 µM		> 100 µM		> 100 µM		> 100 µM		> 100 µM		> 100 µM		85.2
CN(C)C(=O)OC1=CC2CCC(C1)N2C (stereo unspecified)		> 100 µM		> 100 µM		> 100 µM		> 100 µM		> 100 µM		> 100 µM		> 100 µM		> 100 µM		> 100 µM		> 100
COc1ccc(-n2c3c(c4cc(O)ccc42)Cc2ccccc2C3=O)cc1		86.7 µM		> 100 µM		31.9 µM		> 100 µM		> 100 µM				> 100 µM		> 100 µM		> 100 µM		> 100
COc1ccc(-c2nn(-c3ccc(NC(=O)c4cc(Cl)cc(Cl)c4)cc3)cc2-c2ccncc2)cc1Cl	0.695 µM	5.49 µM	7 µM	> 100 µM			3.04 µM	> 100 µM			> 100 µM	> 100 µM	> 100 µM	> 100 µM	> 100 µM	> 100 µM	2.83 µM	> 100 µM	3.43	> 100
O=C(CC(c1ccccc1)C1C(=O)NC(=S)NC1=O)c1ccc([N+](=O)[O-])cc1 (stereo unspecified)		> 100 µM		> 100 µM		> 100 µM		> 100 µM		> 100 µM		> 100 µM		> 100 µM		> 100 µM		> 100 µM		> 100
O=C(/C=C1\N=C(c2ccccc2)N(c2nc3c(Cl)cc(Cl)cc3s2)C1=O)/C=C/c1ccccc1		> 100 µM		> 100 µM		> 100 µM		> 100 µM		> 100 µM		> 100 µM		> 100 µM		> 100 µM		> 100 µM		> 100
COc1cc(C2c3cc4c(cc3[C@@H](Nc3ccc(Oc5ccccc5)cc3)C3COC(=O)[C@H]23)OCO4)cc(OC)c1O (stereo partly specified)		> 100 µM		> 100 µM		96.9 µM		9.6 µM						> 100 µM		> 100 µM		2 µM		> 100
O=C(Nc1ccc(-n2ccc3c(NC(=O)c4ccccc4)nccc32)cc1)Nc1cccc(C(F)(F)F)c1	3.75 µM	18.8 µM	2.91 µM	10.1 µM	7.67 µM	23.3 µM	6.39 µM	21 µM			5.72 µM	19.6 µM	2.93 µM	7.15 µM	4.35 µM	17.9 µM	2.65 µM	10.9 µM	13.4	31.7
O=C1/C(=C/c2[nH]ncc2-c2ccc(Cl)cc2)C(=O)N(c2ccccc2)C1c1ccccc1 (stereo unspecified)		50.7 µM		25 µM				69.6 µM		43.7 µM		85.2 µM		26.9 µM				41 µM		58.7
